Data as given in patent US10597388B2, “Pyridazinone herbicides” (FMC CORPORATION, priority 2014, dated 2020).

Assays:
Format in all cases: in vivo
corn (Zea mays) [1] = assay: Test A greenhouse herbicide test, pre- and postemergence; conditions: Postemergence
Summary of the method: (§1)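 Seeds in loam–sand blend received a preemergence directed soil spray; plants at 2–10 cm, one- to two-leaf stage, received postemergence sprays. Compounds in a non-phytotoxic solvent with surfactant. After about 10 d in a greenhouse, injury rated visually versus untreated controls on a 0–100 scale (100 = complete control).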

[2] = system: foxtail, giant (giant foxtail, Setaria faberii); assay: as above
Summary of the method: as §1

[3] = system: ryegrass, Italian (Italian ryegrass, Lolium multiflorum); assay: as above
Summary of the method: as §1

[4] = system: wheat (Triticum aestivum); assay: as above; conditions: Postemergence
Summary of the method: as §1

[5] = system: blackgrass (Alopecurus myosuroides); assay: Test C greenhouse herbicide test, pre- and postemergence
Summary of the method: (§2)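 Seeds sown in loam–sand blend treated preemergence; plants in peat-based medium sprayed postemergence at 2–18 cm (1- to 4-leaf stage); chemicals in non-phytotoxic solvent with surfactant. Greenhouse 13–15 d, then visual rating versus controls on 0–100 scale (0 no effect, 100 complete control).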

corn (Zea mays) [6] = assay: as above
Summary of the method: as §2

[7] = system: nutsedge, yellow (yellow nutsedge, Cyperus esculentus); assay: as above
Summary of the method: as §2

[8] = system: pigweed (Amaranthus retroflexus); assay: as above
Summary of the method: as §2

soybean (Glycine max) = assay: as above
Summary of the method: as §2

[9] = system: velvetleaf (Abutilon theophrasti); assay: as above
Summary of the method: as §2

[10] = system: waterhemp (common waterhemp, Amaranthus rudis); assay: as above
Summary of the method: as §2

[11] = 125 g ai/ha, 0 to 100 scale where 0 is no effect and 100 is complete control
[12] = 500 g ai/ha, visual rating after approx. 10 d, 0 to 100 scale (0 no effect, 100 complete control)
[13] = Postemergence, 125 g ai/ha, 0 to 100 scale where 0 is no effect and 100 is complete control
[14] = Postemergence, 500 g ai/ha, visual rating after approx. 10 d, 0 to 100 scale (0 no effect, 100 complete control)
[15] = Preemergence, 125 g ai/ha, 0 to 100 scale where 0 is no effect and 100 is complete control
[16] = Preemergence, 500 g ai/ha, 0 to 100 scale where 0 is no effect and 100 is complete control
[17] = Postemergence, 31 g ai/ha, scale 0 to 100 (0 no effect, 100 complete control)
[18] = Postemergence, 62 g ai/ha, 0 to 100 scale (0 no effect, 100 complete control)
[19] = Postemergence, 250 g ai/ha, scale 0 to 100, 0 no effect, 100 complete control, 13 to 15 d
[20] = Preemergence, 31 g ai/ha, scale 0 to 100, 0 is no effect, 100 is complete control
[21] = Preemergence, 62 g ai/ha, scale 0 to 100, 0 is no effect, 100 is complete control
[22] = Preemergence, 125 g ai/ha, scale 0 to 100, 0 is no effect, 100 is complete control
[23] = Preemergence, 250 g ai/ha, scale 0 to 100, 0 no effect, 100 complete control
[24] = postemergence, 125 g ai/ha, scale 0 to 100, 0 no effect, 100 complete control

In the case of `CCC(=O)Oc1c(C)nn(C)c(=O)c1-c1ccc(Br)c2ccccc12` [Compound 134], the “Plant response rating, Corn” value (corn (Zea mays) [1]; [11]) is reported as 20, the “Plant response rating, Corn” value (corn (Zea mays) [1]; [12]) is reported as 50 and the “Plant response rating, Foxtail, Giant” value [2, 13] is reported as 20. The “Plant response rating, Foxtail, Giant” value [2, 14] was 80, the “Foxtail, Giant plant response rating” value [2, 15] was 50 and the “Plant response rating, Foxtail, Giant” value [2, 16] was 90. For the same compound, the “Plant response rating, Ryegrass, Italian” value [3, 13] was 100, the “Plant response rating, Ryegrass, Italian” value [3, 14] was 100 and the “Ryegrass, Italian plant response rating” value [3, 15] was 100. For the same compound, the “Plant response rating, Ryegrass, Italian” value [3, 16] was 100, the “Plant response rating, Wheat” value [4, 11] was 30 and the “Plant response rating, Wheat” value [4, 12] was 30. For the same compound, the “Plant response rating, Blackgrass” value [5, 17] was 50, the “Blackgrass plant response rating” value [5, 18] was 45 and the “Plant response rating, Blackgrass” value [5, 19] was 98. The “Plant response rating, Blackgrass” value [5, 20] was 20, the “Plant response rating, Blackgrass” value [5, 21] was 40 and the “Plant response rating, Blackgrass” value [5, 22] was 40. For the same compound, the “Blackgrass plant response rating” value [5, 23] was 75, the “Blackgrass plant response rating” value [5, 24] was 50 and the “Plant response rating, Corn” value (corn (Zea mays) [6]; [17]) was 5. For the same compound, the “Corn plant response rating” value (corn (Zea mays) [6]; [18]) was 10, the “Plant response rating, Corn” value (corn (Zea mays) [6]; [19]) was 15 and the “Plant response rating, Corn” value (corn (Zea mays) [6]; [20]) was 0. For the same compound, the “Plant response rating, Corn” value (corn (Zea mays) [6]; [21]) was 0, the “Plant response rating, Corn” value (corn (Zea mays) [6]; [22]) was 10 and the “Corn plant response rating” value (corn (Zea mays) [6]; [23]) was 5. The “Corn plant response rating” value (corn (Zea mays) [6]; [24]) was 10, the “Plant response rating, Nutsedge, Yellow” value [7, 17] was 75 and the “Nutsedge, Yellow plant response rating” value [7, 18] was 80. The “Plant response rating, Nutsedge, Yellow” value [7, 19] was 90, the “Plant response rating, Nutsedge, Yellow” value [7, 20] was 30 and the “Plant response rating, Nutsedge, Yellow” value [7, 21] was 45. For the same compound, the “Plant response rating, Nutsedge, Yellow” value [7, 22] was 95, the “Nutsedge, Yellow plant response rating” value [7, 23] was 90 and the “Nutsedge, Yellow plant response rating” value [7, 24] was 95. The “Plant response rating, Pigweed” value [8, 17] was 80, the “Pigweed plant response rating” value [8, 18] was 100 and the “Plant response rating, Pigweed” value [8, 19] was 100. The “Plant response rating, Pigweed” value [8, 20] was 75, the “Plant response rating, Pigweed” value [8, 21] was 100 and the “Plant response rating, Pigweed” value [8, 22] was 100. For the same compound, the “Pigweed plant response rating” value [8, 23] was 100, the “Pigweed plant response rating” value [8, 24] was 100 and the “Plant response rating, Soybean” value (soybean (Glycine max); [17]) was 75. For the same compound, the “Soybean plant response rating” value (soybean (Glycine max); [18]) was 70, the “Plant response rating, Soybean” value (soybean (Glycine max); [19]) was 85 and the “Plant response rating, Soybean” value (soybean (Glycine max); [20]) was 40. For the same compound, the “Plant response rating, Soybean” value (soybean (Glycine max); [21]) was 45, the “Plant response rating, Soybean” value (soybean (Glycine max); [22]) was 65 and the “Soybean plant response rating” value (soybean (Glycine max); [23]) was 75. The “Soybean plant response rating” value (soybean (Glycine max); [24]) was 70, the “Plant response rating, Velvetleaf” value [9, 17] was 80 and the “Velvetleaf plant response rating” value [9, 18] was 90. For the same compound, the “Plant response rating, Velvetleaf” value [9, 19] was 100, the “Plant response rating, Velvetleaf” value [9, 20] was 75 and the “Plant response rating, Velvetleaf” value [9, 21] was 90. For the same compound, the “Plant response rating, Velvetleaf” value [9, 22] was 90, the “Velvetleaf plant response rating” value [9, 23] was 100 and the “Velvetleaf plant response rating” value [9, 24] was 100. The “Plant response rating, Waterhemp” value [10, 17] was 98, the “Waterhemp plant response rating” value [10, 18] was 100 and the “Plant response rating, Waterhemp” value [10, 19] was 100. For the same compound, the “Plant response rating, Waterhemp” value [10, 20] was 90, the “Plant response rating, Waterhemp” value [10, 21] was 98 and the “Plant response rating, Waterhemp” value [10, 22] was 98. For the same compound, the “Waterhemp plant response rating” value [10, 23] was 100 and the “Waterhemp plant response rating” value [10, 24] was 100.
